Measurements published in paper PMC8893300, “A Dynamic Mass Redistribution Assay for the Human Sweet Taste Receptor Uncovers G-Protein Dependent Biased Ligands” (Frontiers in Pharmacology, 2022).
Read-outs that look alike come from different tables or passages of the source. Marks after values point to notes of the source that are not given here. Residues, ends and D or L forms follow the SMILES beside them.

Tests used:
[1] = target: T1, human sweet taste receptor (hT1R2/hT1R3) coupled to Gα15 (Homo sapiens, UniProt Q7RTX0+Q8TE23); experiment: FLIPR calcium mobilization assay, R2/R3 U2OS cells transduced with Gα15 baculovirus; format: cell-based; details: for ΔlogR FLIPR Mean: FLIPR-Gα15, operational model, logR minus sucralose logR; for Activity in FLIPR assay Emax: top asymptote of dose-response normalized to 1 mM sucralose; for Bias factor: inverse log of ΔΔlogR, FLIPR-Gα15 vs DMR; for ΔΔlogR Mean: ΔlogR FLIPR-Gα15 minus ΔlogR DMR
T1 construct: expressed in transfected cells
T1 sequence (Q8TE23 20-839): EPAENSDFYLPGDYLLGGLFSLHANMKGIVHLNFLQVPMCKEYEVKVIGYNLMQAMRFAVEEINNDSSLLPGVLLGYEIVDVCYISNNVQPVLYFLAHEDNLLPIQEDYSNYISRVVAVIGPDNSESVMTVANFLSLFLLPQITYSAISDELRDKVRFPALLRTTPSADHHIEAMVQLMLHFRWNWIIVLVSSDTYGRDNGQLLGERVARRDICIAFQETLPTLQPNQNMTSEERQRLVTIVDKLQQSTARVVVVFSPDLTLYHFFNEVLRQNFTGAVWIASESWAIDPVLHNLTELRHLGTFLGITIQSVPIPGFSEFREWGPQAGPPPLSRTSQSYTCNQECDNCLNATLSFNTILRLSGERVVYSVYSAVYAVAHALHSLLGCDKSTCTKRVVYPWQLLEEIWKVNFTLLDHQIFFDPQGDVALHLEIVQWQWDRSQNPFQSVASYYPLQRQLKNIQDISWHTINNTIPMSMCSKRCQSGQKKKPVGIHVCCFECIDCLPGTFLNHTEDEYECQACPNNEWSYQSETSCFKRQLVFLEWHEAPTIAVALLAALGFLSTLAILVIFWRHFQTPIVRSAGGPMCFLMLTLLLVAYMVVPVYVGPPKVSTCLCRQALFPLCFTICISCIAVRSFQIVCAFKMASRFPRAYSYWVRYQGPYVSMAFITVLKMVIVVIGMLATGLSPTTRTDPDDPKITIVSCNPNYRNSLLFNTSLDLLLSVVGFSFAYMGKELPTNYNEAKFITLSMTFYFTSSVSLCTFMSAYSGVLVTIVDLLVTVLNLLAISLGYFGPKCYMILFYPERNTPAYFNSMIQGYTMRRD
T1 sequence (Q7RTX0 21-852): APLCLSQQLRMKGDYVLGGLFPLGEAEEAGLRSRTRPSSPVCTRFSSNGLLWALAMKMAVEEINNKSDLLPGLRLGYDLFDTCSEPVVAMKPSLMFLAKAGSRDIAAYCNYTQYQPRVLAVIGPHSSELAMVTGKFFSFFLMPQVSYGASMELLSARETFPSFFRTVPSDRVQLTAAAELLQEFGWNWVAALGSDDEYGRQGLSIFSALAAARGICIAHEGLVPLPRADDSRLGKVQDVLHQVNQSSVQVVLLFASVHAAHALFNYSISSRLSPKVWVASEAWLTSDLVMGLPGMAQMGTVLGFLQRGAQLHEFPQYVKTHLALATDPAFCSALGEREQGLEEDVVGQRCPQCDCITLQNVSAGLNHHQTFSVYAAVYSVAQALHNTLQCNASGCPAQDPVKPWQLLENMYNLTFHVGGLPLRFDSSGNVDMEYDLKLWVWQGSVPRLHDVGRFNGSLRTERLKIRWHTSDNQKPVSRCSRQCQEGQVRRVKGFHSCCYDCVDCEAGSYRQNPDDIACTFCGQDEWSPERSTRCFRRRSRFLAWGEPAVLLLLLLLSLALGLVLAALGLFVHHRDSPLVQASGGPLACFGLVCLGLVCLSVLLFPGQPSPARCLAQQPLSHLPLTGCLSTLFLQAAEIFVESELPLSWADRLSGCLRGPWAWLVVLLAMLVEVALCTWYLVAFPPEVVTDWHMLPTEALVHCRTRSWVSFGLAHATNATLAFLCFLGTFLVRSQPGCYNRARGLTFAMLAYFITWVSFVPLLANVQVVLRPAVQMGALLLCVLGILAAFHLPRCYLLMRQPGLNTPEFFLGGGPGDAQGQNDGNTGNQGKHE
Protocol: The Gα15 coding sequence was inserted in the HindIII-NotI sites and recombinant virus was generated using the Bac-to-Bac system (Life Technologies). Virus was further amplified by propagation in Sf9 cells grown in suspension using Sf900-II media. Virus titers were determined by plaque assay on Sf9 cells.
Cells were gently mixed with the virus at a multiplicity of infection (MOI) of 5. Using a multidrop, 70 μl per well of the cell and virus mixture was dispensed in a 384-well clear bottom plate (Fisher). After 24 h of incubation in a humidified 37°C tissue culture incubator, trichostatin A was added to a final concentration of 0.3 μM and the cells were incubated for another 18–24 h at 34°C. On the day of the experiment, cells were loaded with 4 μM of the calcium indicator Fluo-4 AM (Invitrogen) in D-PBS for 1 h at room temperature. After washing the cells with D-PBS using a cell washer (BioTek) and a 30-minute rest time, the cell plate and the compound plate were transferred into the FLIPR-Tetra (Molecular Devices). […] Loading and the FLIPR assay were run as described above. When indicated, data for agonist dose-responses were normalized to data obtained with a maximum concentration of sucralose (1 mM) and then fitted and plotted using GraphPad Prism (San Diego, CA) and non-linear regression analysis.
(§1) This value, that we termed pEC50Ratio (sucralose) or pEC50R (sucralose), was calculated with EC50 values obtained in the two assay systems. This transformation also allowed determination of an average and a standard error for the pEC50R (sucralose). The two sets of data (DMR and FLIPR data) were then analyzed with an un-paired t-test (α = 0.05). To calculate relative efficacy bias between the two assays, we captured the top asymptote value from each activity-normalized dose-response curve, as provided by the curve fit, calculated an average and a standard deviation (sd) for each agonist and then analyzed the data pairs with an un-paired t-test (α = 0.05). […] The following steps were followed: 1) Using the PRISM software, we re-analyzed each ligand’s dose-response data obtained in each assay with non-linear regression and the users-defined equation “New Operational Model with TauKa ratios” and retrieved logR values from the fits. 2) Subtracted each ligand’s logR value with that of our standard, the sucralose logR value, obtained from the same data set (each ligand dose-response assay data used in this analysis was accompanied with a sucralose dose-response ran on the same day), producing the ΔlogR value for leach ligand in each assay. 3) Calculated the mean and SEM from ΔlogR replicates (from three to nine independent dose-response analysis, in the two different assays). 4) Calculated ΔΔlogR values by subtracting the averaged ligands’ ΔlogR FLIPR values with the averaged ligands’ ΔlogR DMR values.

[2] = target: T2, human sweet taste receptor (hT1R2/hT1R3) (Homo sapiens, UniProt Q7RTX0+Q8TE23); experiment: DMR assay (Epic reader) on R2/R3 U2OS cells, endogenous G proteins; format: cell-based; details: for EC50: R2/R3 U2OS cells, peak DMR response; for ΔlogR DMR Mean: Table 2, operational model, logR minus sucralose logR; for Activity in DMR assay Emax: top asymptote of dose-response normalized to 1 mM sucralose
T2 construct: expressed in transfected cells
T2 sequence (Q8TE23 20-839): T1 sequence (Q8TE23 20-839)
T2 sequence (Q7RTX0 21-852): T1 sequence (Q7RTX0 21-852)
Protocol: The plates were incubated in the tissue culture hood for 20 min to allow cells to settle evenly at the bottom of the microplate and further cultured at 37°C in an atmosphere of 5% CO2 for 18–24 h. The next day, the cells were subjected to functional analysis using DMR. […] When indicated, data for agonist dose-responses were normalized to data obtained with a maximum concentration of sucralose (1 mM) and then fitted and plotted using GraphPad Prism (San Diego, CA) and non-linear regression analysis.
as §1

[3] = Activity in FLIPR assay EC50, R2/R3 U2OS cells expressing Gα15
[4] = Activity in FLIPR assay pEC50, R2/R3 U2OS cells expressing Gα15
[5] = read-out: Activity in DMR assay EC50
[6] = read-out: Activity in DMR assay pEC50 (converted)
[7] = R2/R3 U2OS cells expressing Gα15, read-out: Activity in FLIPR assay EC50
[8] = R2/R3 U2OS cells expressing Gα15, read-out: Activity in FLIPR assay pEC50 (converted)

Row | Structure (SMILES) | EC50 [1, 3] [µM] | EC50 [1, 4] [µM] | ΔlogR FLIPR Mean [1] | Activity in FLIPR assay Emax ([1]; Gα15) | Bias factor [1] | ΔΔlogR Mean [1] | EC50 [2, 5] [µM] | EC50 [2, 6] [µM] | ΔlogR DMR Mean [2] | Activity in DMR assay Emax [2] | EC50 [1, 7] [µM] | EC50 [1, 8] [µM] | response in the FLIPR assay, in words ([1]; R2/R3 U2OS cells transduced with Gα15) | enhancement factor of the sucralose dose-response in the FLIPR assay ([1]; 25 μM SE-2, Gα15, mean ± sd, n = 4) [fold] | leftward shift in the sucralose dose-response in the DMR assay ([2]; 25 μM SE-2, mean ± sd, n = 3) [fold] | agonist activity on its own in the DMR assay, in words ([2]; 25 μM SE-2 at lower sucralose concentrations)
1 | C[C@@H](NC(=O)[C@@H](N)CC(=O)O)C(=O)NC1C(C)(C)SC1(C)C [Alitame] | 20 | 19.4 | 0.52 | 100 | 1.5 | 0.18 | 37 | 32.5 | 0.35 | 106 | – | – | – | – | – | –
2 | COC(=O)[C@H](Cc1ccccc1)NC(=O)[C@@H](N)CC(=O)O [Aspartame] (H-Asp-Phe-OMe) | – | – | −0.74 | 106 | – | −0.03 | 910 | 771 | −0.72 | 143 | 354 | 352 | – | – | – | –
3 | O=C(CO)[C@@H](O)[C@H](O)[C@H](O)CO [D-fructose] | – | – | – | – | – | – | – | – | – | – | – | – | readily detected | – | – | –
4 | CCOc1ccc(NC(N)=O)cc1 [Dulcin] | – | – | 0.38 | 87**** | – | 0.18 | 33 | 30.7 | 0.20 | 57**** | – | 23.1 | – | – | – | –
5 | CCCOc1ccc([N+](=O)[O-])cc1N [P-4000] | – | – | 1.67 | 164**** | – | 0.36 | – | 3.78 | 1.31 | 102 | 2.2 | 2.12 | – | – | – | –
6 | O=C1NS(=O)(=O)c2ccccc21 [Saccharin] | – | – | −0.47 | 90**** | – | −0.16 | – | – | −0.31 | 145 | – | – | – | – | – | –
7 | C=C1C[C@@]23CC[C@H]4[C@@](C)(CCC[C@@]4(C)C(=O)O[C@@H]4O[C@H](CO)[C@@H](O)[C@H](O)[C@H]4O)[C@@H]2CC[C@]1(O[C@@H]1O[C@H](CO)[C@@H](O)[C@H](O)[C@H]1O[C@@H]1O[C@H](CO)[C@@H](O)[C@H](O)[C@H]1O)C3 [Stevioside] | 51 | 50.1 | 0.13 | 102 | – | 0.04 | 127 | 114 | 0.09 | 141 | – | – | – | – | – | –
8 | COC(=O)[C@H](Cc1ccccc1)NC(=O)[C@H](CC(=O)O)NC(=O)Nc1ccc(C#N)cc1 [Superaspartame] | – | – | 1.17 | 105 | – | 0.13 | 9.8 | 9.48 | 1.04 | 109 | 4.7 | 4.62 | – | – | – | –
9 | CC1=CC(=O)NS(=O)(=O)O1 [acesulfame K] | – | – | −0.74 | 73**** | 1.8 | – | 1220 | 906 | −0.99 | 122 | 253 | 251 | – | – | – | –

Second part, led by results:

Row | EC50 [1, 3] [µM] | EC50 [1, 4] [µM] | ΔlogR FLIPR Mean [1] | Activity in FLIPR assay Emax ([1]; Gα15) | Bias factor [1] | ΔΔlogR Mean [1] | EC50 [2, 5] [µM] | EC50 [2, 6] [µM] | ΔlogR DMR Mean [2] | Activity in DMR assay Emax [2] | EC50 [1, 7] [µM] | EC50 [1, 8] [µM] | response in the FLIPR assay, in words ([1]; R2/R3 U2OS cells transduced with Gα15) | enhancement factor of the sucralose dose-response in the FLIPR assay ([1]; 25 μM SE-2, Gα15, mean ± sd, n = 4) [fold] | leftward shift in the sucralose dose-response in the DMR assay ([2]; 25 μM SE-2, mean ± sd, n = 3) [fold] | Structure (SMILES) | agonist activity on its own in the DMR assay, in words ([2]; 25 μM SE-2 at lower sucralose concentrations)
10 | – | – | 2.15 | 159**** | – | 0.08 | 1.3 | 1.22 | 2.07 | 133 | 0.7 | 0.716 | – | – | – | Cc1cc(C)c2c(c1)[C@H](NC(=O)c1conc1C)CCC2 [S679] | –
11 | – | – | 2.14 | 170**** | – | 0.22 | – | 1.51 | 1.91 | 130 | 0.7 | 0.665 | – | – | – | COCc1cncc(-c2ccc(C(C)(C)C(=O)NCC(C)C)cc2)n1 [S1313] | –
12 | – | – | 1.45 | 98** | – | 0.07 | 4.3 | 4.09 | 1.38 | 97** | – | 2.28 | – | – | – | C[C@H](NC(=Nc1ccc(C#N)cc1)NCC(=O)O)c1ccccc1 [SC-45647] | –
13 | – | – | – | – | – | – | – | – | – | – | – | – | – | 7.3 ± 0.9 | 5.1 ± 1.5 | Cc1sc2[nH]c(=O)nc(N)c2c1C [SE-2] | did not produce any agonist activity on its own
